Read-outs that look alike come from different tables or passages of the source.
System: rat liver
Set-up: species or system Sprague Dawley (SD) rats
Description: Animals. Male Sprague Dawley (SD) rats weighing between 300-350 g (Harlan Sprague Dawley, Indianapolis, Ind.) were used. Animals were fed standard rodent chow and water and libitum and cared according to guidelines approved by the American Association of Laboratory Animal Care.
Isolated perfusion liver apparatus. An isolated perfusion liver apparatus was used, as described in Amersi et al., supra, and Maulik et al., Circulation 94:398-406 (1996). In brief, syngeneic rat blood, obtained for each experiment from four donor animals, was diluted to a hematocrit of 15% with Krebs Ringer Bicarbonate Buffer (mM: NaCl 118, KH2POF 1, MgSO4 0.9, CaCl2 2.5, dextrose 11.1, and NaHCO2 25), and maintained at pH of 7.4. The perfusate was pumped from a heated reservoir that warmed the perfusate to 37° C. through silastic tubing oxygenator connected to a flow meter that measured portal vein blood flow (Cole Palmer Instruments, Chicago, Ill.). Portal pressure was kept constant via a pressure monometer connected to a T fitting in the portal vein canula. […] During the experiment, pH, temperature and oxygenation were kept constant.
Ex vivo cold ischemia model. SD rats underwent isoflourane anesthesia and systemic heparinization. […] The livers were then stored for 24 h at 4° C. in UW solution, followed by ex-vivo reperfusion for 1-2 h on an isolated perfusion liver apparatus. Portal vein blood flow, pressure, and bile production were recorded every 30 min. Blood samples were collected at 30 min intervals and serum glutamic oxaloacetic transaminase (sGOT) levels were measured using an autoanalyzer from ANTECH Diagnostics (Irvine, Calif.). At the conclusion of experiment, a portion of the liver was snap frozen for mRNA extraction/Western blot analyses; the remaining samples were fixed in formalin for H&E staining.
The role of CO—HO-1 pathway in hepatic I/R injury was studied in five major treatment groups (n=4.8 rats/group). In Group 1, the extent of I/R injury was contrasted between livers perfused ex-vivo with blood saturated with CO (300 parts per million [ppm]; 0.03% balanced air) vs. air alone (21% O2). As NO may enhance HO-1 expression (Brouard et al., supra), we then investigated a link between the two gaseous molecules in Group 2 livers, which were perfused with CO supplemented with 25 mM NG-nitro-L-arginine methyl ester hydrochloride (L-NAME; Sigma Chemicals, St. Louis, Mo.), an inducible NO inhibitor. […] To analyze as to whether exogenous CO can substitute for HO-1 in preventing I/R insult, Group 4 rats were treated 24 h prior to liver procurement with ZnPP)(1.5 mg/kg/i.p; Porphyrin Products, Logan Utah), an HO-1 inhibitor, followed by ex vivo perfusion with CO. […] Brouard et al., supra. Therefore, Group 5 rats were pre-treated 60 min before harvest with p38 MAPK inhibitor, SB203580, a pyridinyl imidazol (25 mg/kg orally; Sigma). In addition, prior to reperfursion with CO, SB203580 (20 μM) was added to the perfusate.

[1] = 24 h cold storage, 2 h reperfusion, CO 300 ppm vs air alone

[C-]#[O+] [CO, carbon monoxide]
bile production [1]: significantly more bile | portal vein resistance [1]: significantly decreased | sGOT levels (CO 300 ppm alone, 2 h reperfusion): 163±27 IU/L | sGOT levels (CO 300 ppm, 1 h reperfusion): 79±14 IU/L
